Measured values from US20090311344A1, “Dosing Regimen” (priority 2008, published 2009).

Tests used:
[1] = test system: platelets, reticulocytes, hematocrit; test: CBC analysis and reticulocyte counts in HT-29 tumor-bearing mice (Groups 6-9); type: in vivo, athymic nude mice; conditions: for mean reticulocyte values: Group 7
Experimental: Five groups (n=10) of female athymic nude mice (Harlan) bearing established (˜100 mm^3) HT-29 human colon carcinomas on Day 1. Groups 6-9 (n=20) were included for blood sampling and received the same treatment as Groups 1-4, respectively. Treatment effects on the growth of tumors were evaluated by tumor growth delay (TGD), which is the difference between median time to endpoint (TTE) tumor size in a treatment group compared to a control group. […]
(§1) Group 1 mice (n=10) were untreated tumor growth controls. Group 2 mice (n=10) received 60 mg/kg carboplatin administered intraperitoneally (i.p.) on Days 1, 2, 12, and 13. Group 3 mice (n=10) received 0.2 mg/kg of the TPO mimetic peptide compound administered intravenously (i.v.) via tail vein on Days 2 and 13. Groups 4 and 5 received the combination of carboplatin (60 mg/kg i.p. on Days 1, 2, 12, and 13) and 0.2 mg/kg of the TPO mimetic peptide compound on Days 2, 13 and Days 2, 13, 23, respectively, administered intravenously (i.v.) one hour after carboplatin dosing. Groups 6-9 (n=20 each) were included for blood sampling and received the same treatments as Groups 1-4, respectively. For all groups, each dose of drug was given in a volume of 0.2 mL per 20 g of body weight (10 mL/kg), and was scaled to the body weight of each animal.
[…] Blood was collected into EDTA tubes, and complete blood counts (CBC) with differential were determined using a Cell-Dyn® 3700 System (Abbott Diagnostics) for automated hematology analyses. Reticulocyte values were determined. In addition, for Groups 1-5, five animals per group were euthanized at or just after endpoint by terminal cardiac puncture under CO2 anesthesia, and gross necropsies were performed. Blood samples were collected into EDTA tubes, and CBC with differential and reticulocyte values were performed as previously described. All other animals in Groups 1-5 were euthanized at endpoint without sampling.

[2] = test system: HT-29 human colon carcinoma xenografts; test: HT-29 human colon carcinoma xenografts in athymic nude mice: tumor growth delay; type: in vivo
Source text: Administration of the TPO Mimetic Peptide Compound One Hour After Administration of Carboplatin. Effect on activity and toxicity of carboplatin against HT-29 human colon carcinoma xenografts established in athymic nude mice.
Five groups (n=10) of female athymic nude mice (Harlan) bearing established (˜100 mm^3) HT-29 human colon carcinomas on Day 1. Groups 6-9 (n=20) were included for blood sampling and received the same treatment as Groups 1-4, respectively. Treatment effects on the growth of tumors were evaluated by tumor growth delay (TGD), which is the difference between median time to endpoint (TTE) tumor size in a treatment group compared to a control group. The effect of these treatments on platelet and erythrocyte precursors was determined from CBC analysis and reticulocyte counts of blood samples taken on Days 10, 13, 21 and 24.
Xenografts were initiated from HT-29 human colon carcinoma xenografts maintained in athymic nude mice. HT-29 tumor fragments (1 mm^3) were implanted subcutaneously into the right flank of each test mouse, and tumor growth was monitored. On Day 1 of the study, the animals were pair-matched into five groups (Groups 1-5) for evaluation of efficacy and four groups for sampling (Groups 6-9). Groups 1-5 each consisted of ten animals with tumor sizes ranging from 75-126 mm^3 and group mean tumor sizes of 99 mm^3. Groups 6-9 each consisted of twenty animals with tumor sizes ranging from 40-221 mm^3 and group mean tumor sizes of 84 mm^3. Tumor weight was estimated with the assumption that 1 mg is equivalent to 1 mm^3 of tumor volume. Volume was calculated using the formula:
as §1
Tumors were measured twice each week using calipers. Each animal was euthanized when its tumor reached the predetermined endpoint size of 1000 mm^3, or on the final day of the study (Day 62), whichever came first. The time to endpoint (TTE) for each mouse was calculated from the following equation: […]
where b is the intercept and m is the slope of the line obtained by linear regression of a log-transformed tumor growth data set. The data set was comprised of the first observation that exceeded the study endpoint volume and the three consecutive observations that immediately preceded the attainment of the endpoint volume.
Treatment outcome was determined from tumor growth delay (TGD), which is defined as the increase in the median time to endpoint (TTE) in a treatment group compared to the control group:
where: • T=median TTE for a treatment group, • C=median TTE for the control group (Group 1)
Treatment may cause partial regression (PR) or complete regression (CR) of the tumor in an animal. In a PR response, the tumor volume is 50% or less of its Day 1 volume for three consecutive measurements during the course of the study, and equal to or greater than 13.5 mm^3 for one or more of these three measurements. In a CR response, the tumor volume is less than 13.5 mm^3 for three consecutive measurements during the course of the study. An animal with a CR response at the termination of a study is additionally classified as a long-term tumor-free survivor (LTTFS). […]

N.N.O=C([O-])C1(C(=O)[O-])CCC1.[Pt+2] [carboplatin, Carboplatin, reference compound]
mean HCT values of Group 7 compared to Group 9 ([1]; Days 13, 21, and 23): slightly lower
mean reticulocyte values ([1]; Day 10 (near the expected nadir)): negligible
mean reticulocyte values ([1]; Day 13): higher than in control mice
mean reticulocyte values ([1]; Day 21 after the second cycle of treatment): low
mean hematocrit (HCT) values compared to untreated mice (Group 6) ([1]; Groups 7-9): lower mean HCT values than controls
mean platelet counts compared to untreated Group 6 controls ([1]; Groups 7-9, regimens as Groups 2-4, Days 10, 13, 21, and 23): lower mean platelet counts at all time points
regression responses ([2]; Group 2): No regression responses were recorded
number of 62-day survivors ([2]; Group 2, n=10): 1
tumor volume of the animal remaining in the study on Day 62 ([2]; Group 2, one animal): 600 mm^3
Tumor Burden Median ([2]; Group 2: carboplatin 60 mg/kg i.p. Days 1, 2, 12, 13, (n animals) in brackets): 600(1)
TGD (tumor growth delay) ([2]; Groups 2-4, relative to untreated Group 1, carboplatin 60 mg/kg i.p. Days 1, 2, 12, 13, TPO mimetic peptide compound 0.2 mg/kg i.v. Days 2, 13): 22.8 days
% Tumor Growth Delay ([2]; HT-29 xenografts, athymic nude mice, n=10, carboplatin 60 mg/kg i.p. Days 1, 2, 12, 13, TPO mimetic peptide compound 0.2 mg/kg i.v. Days 2, 13, Groups 2-4, vs untreated Group 1): 92%
Median TTE ([2]; HT-29 xenografts, athymic nude mice, n=10, carboplatin 60 mg/kg i.p. Days 1, 2, 12, 13, TPO mimetic peptide compound 0.2 mg/kg i.v. Days 2, 13, Groups 2-4, endpoint 1000 mm^3): 47.6 days
